Data taken from patent publication US11833128B2, “Ketone carbonyl-containing hydrophobic antitumor drug and conjugate thereof as well as nano preparation containing conjugate, preparation method therefor, and application thereof” (Jiangsu Jibeier Pharmaceutical Co. Ltd., priority 2018, dated 2023).

How the values were obtained:
[1] = system: human lung cancer A549 xenograft; test: Tumor inhibitory effect of DTX-AI in nude mice bearing human lung cancer A549 xenograft; details: iv x 4 (qw); for Animal body weight (g) (After tumor removal): Day 43; for Tumor inhibition rate %: Day 43 (21st day from the last administration);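 for all read-outs here: mice implanted subcutaneously with A549 tumor fragments, grouped 14 days later at mean tumor volume near 210–250 mm^3, grouping set as Day 0, animals sacrificed on Day 43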
Text: A well-grown A549 lung cancer solid tumor was taken and cut into uniform small masses having a size of about 3 mm under sterile conditions. Each mouse was inoculated subcutaneously under the right armpit with one mass by using a trocar. 14 days after inoculation, the average tumor volume was about 210 to 250 mm^3. The mice were grouped according to the tumor sizes, and the average tumor volume of each group was basically the same. […] The long diameters (a) and the short diameters (b) of the tumors were measured with an electronic digital caliper twice a week. The calculation formula of tumor volume (TV) was: TV=½×a×b^2. The calculation formula of the relative tumor volume (RTV) was: RTV=Vt/V0, wherein V0 was the tumor volume measured at the time of grouping (namely, d0), and Vt was the tumor volume at each measurement. […] On Day 43 (56 days after inoculation), the animals were sacrificed and dissected, the tumors were incised and weighed, and the body weights of the animals after tumor removal were calculated.

Hela tumor = test: Effects of the pH-responsive nano preparations on tumor in vivo (Hela tumor-bearing mice); details: tail vein, once every seven days x3; for relative tumor inhibition rate: 30th day from the last administration
Protocol: Hela tumor-bearing mice were divided into four groups with five mice in each group. The first, second, and third groups were the treatment groups, in which tumor treatment was carried out by respectively injecting the drug via the tail vein of each Hela tumor-bearing mouse. […] The fourth group was the blank control group.
The mice in the first, second and third groups were treated by administering drugs once every seven days for a total of three injections. Each tumor-bearing mouse in each group was labeled, and the body weight and the tumor volume thereof throughout the treatment process were recorded. The tumor volume was calculated according to the following formula: V (mm^3)=½×length (mm)×width (mm)^2.
Moreover, the relative tumor inhibition rate was also calculated and analyzed.

CC(=O)OC12COC1CC(O)C1(C)C(=O)C(OC(=O)Nc3ccc(C(C)=O)cc3)C3=C(C)C(OC(=O)C(O)C(NC(=O)OC(C)(C)C)c4ccccc4)CC(O)(C(OC(=O)c4ccccc4)C21)C3(C)C (stereo not shown) [DTX-AI]
RTV (Day 43) ([1]; 20 mg/kg): 6.62 ± 2.10 | body weights of the animals after administering (FIG. 9), in words ([1]; 20 mg/kg): basically not affected | Animal body weight (g) (After tumor removal) ([1]; 20 mg/kg): 25.52 ± 0.99 g | Tumor inhibition rate % ([1]; 20 mg/kg): 62.38% | tumor rebound after drug withdrawal ([1]; 40 mg/kg, 60 mg/kg and 80 mg/kg groups): no tumor rebound occurred | RTV (Day 43) ([1]; 40 mg/kg): 0.13 ± 0.03 | body weights of the animals after administering (FIG. 9), in words ([1]; 40 mg/kg): slightly reduced | Animal body weight (g) (After tumor removal) ([1]; 40 mg/kg): 24.07 ± 1.19 g | Tumor inhibition rate % ([1]; 40 mg/kg): 99.28% | RTV (Day 43) ([1]; 60 mg/kg): 0.09 ± 0.02 | body weights of the animals after administering (FIG. 9), in words ([1]; 60 mg/kg): slightly reduced | Animal body weight (g) (After tumor removal) ([1]; 60 mg/kg): 24.24 ± 1.43 g | Tumor inhibition rate % ([1]; 60 mg/kg): 99.50% | RTV (Day 43) ([1]; 80 mg/kg): 0.13 ± 0.05 | body weights of the animals after administering (FIG. 9), in words ([1]; 80 mg/kg): reduced | Animal body weight (g) (After tumor removal) ([1]; 80 mg/kg): 20.99 ± 2.86 g | Tumor inhibition rate % ([1]; 80 mg/kg): 99.27% | death of animals ([1]; 4 dose groups (20, 40, 60, 80 mg/kg)): No death occurred | relative tumor volume after 21 days (after the administration was stopped) (FIG. 5) (Hela tumor; 40 mg DTX/kg): still showed a decreasing trend with time | tumor sizes after the completion of the treatment (photograph, FIG. 7) (Hela tumor; 40 mg DTX/kg): significantly smaller than those of the first group and the blank control group | relative tumor inhibition rate (Hela tumor; 40 mg DTX/kg): 93.5% | body weights of the mice over treatment time (FIG. 4) (Hela tumor; 40 mg DTX/kg, compared with blank control group): basically the same as those in the blank control group

CC(=O)O[C@@]12CO[C@@H]1C[C@H](O)[C@@]1(C)C(=O)[C@H](O)C3=C(C)[C@@H](OC(=O)[C@H](O)[C@@H](NC(=O)OC(C)(C)C)c4ccccc4)C[C@@](O)([C@@H](OC(=O)c4ccccc4)[C@H]21)C3(C)C [Docetaxel, docetaxel, reference compound]
RTV (Day 43) ([1]; 20 mg/kg): 2.73 ± 1.36 | body weights of the animals after administering (FIG. 9), in words ([1]; 20 mg/kg): reduced | death of animals ([1]; 20 mg/kg): no death | Animal body weight (g) (After tumor removal) ([1]; 20 mg/kg): 25.35 ± 1.15 g | Tumor inhibition rate % ([1]; 20 mg/kg): 84.50% | RTV (Day 43) ([1]; 40 mg/kg): 0.13 ± 0.02 | body weights of the animals after administering (FIG. 9), in words ([1]; 40 mg/kg): severely reduced | Animal body weight (g) (After tumor removal) ([1]; 40 mg/kg): 18.71 ± 2.78 g | Tumor inhibition rate % ([1]; 40 mg/kg): 99.24% | death of animals (number of animals died) ([1]; 40 mg/kg, died on Day 33): 1 animal | relative tumor volume after 21 days (after the administration was stopped) (FIG. 5) (Hela tumor; 25 mg DTX/kg): continued to increase with time | relative tumor inhibition rate (Hela tumor; 25 mg DTX/kg): 67.62%
